Test system: corneal esterase enzymes
Assay: Enzymatic hydrolysis of fluprostenol 1,15-lactone by corneal esterase enzymes (incubation with bovine corneal tissue; TLC and HPLC analysis)
Format: in vitro ADME
Conditions: pH 7.4 phosphate buffered saline, 37° C.
Experimental: Enzymatic hydrolysis of fluprostenol 1,15-lactone by corneal esterase enzymes was documented by suspending 500 μg of fluprostenol 1,15-lactone in 10 ml of pH 7.4 phosphate buffered saline containing approximately 40 mg of freshly collected bovine cornea! tissue. The mixture was incubated at 37° C. and analyzed at 2 hour, 4 hour and 18 hour time intervals by Thin Layer Chromatography (TLC; Analtech silica gel G-60 plates) using 40:60 acetone:dichloromethane containing 0.5% acetic acid. The plates were visualized by spraying with vanillin dissolved in methanol and phosphoric acid; followed by charring on a hot plate. PGF2α methyl ester, which is known to be hydrolyzed by corneal esterases, was subjected to the same procedure as a control.
The results are shown in FIGS. 3A-3D which are images of chromatography plates developed at 2 hours (FIGS. 3A and 3C) and 4 hours (FIGS. 3B and 3D), respectively. […]
The mixture of fluprostenol 1,15-lactone and bovine corneal tissue was also analyzed using HPLC under the conditions specified in FIGS. 4A and 4B which are graphic representations of the HPLC analysis results for a fluprostenol 1,15-lactone standard (FIG. 4A) and a mixture of fluprostenol 1,15-lactone and bovine corneal tissue incubated for 4 hours (FIG. 4B).

## O=C1CCC/C=C\CC2C(/C=C/[C@@H](COc3cccc(C(F)(F)F)c3)O1)[C@H](O)C[C@@H]2O (some centres unmarked) [fluprostenol 1,15-lactone]
HPLC, after 4 hours
  conversion of fluprostenol 1,15-lactone to fluprostenol free acid: more than 50%
TLC, by 4 hours
  release of the free acid by hydrolysis: clearly shown
